Earlier results in article PMC10928227, “Assessing biologic/toxicologic effects of extractables from plastic contact materials for advanced therapy manufacturing using cell painting assay and cytotoxicity screening” (Scientific Reports, 2024).
Where two headings read alike, the source gives them in different places.

Conditions: cited from earlier work; for Risk based on in vitro genotoxicity data from database (from QSAR-toolbox): not checked for in vivo relevance, ref QSAR Toolbox 4.5 database
[1] = Salmonella typhimurium, Strain TA 98, in Vitro, Database: Bacterial mutagenicity ISSSTY, ref CCRIS database,Toxnet databases (Romualdo Benigni)
[2] = Salmonella typhimurium, Strain TA 100, in Vitro, Database: Bacterial mutagenicity ISSSTY, ref CCRIS database,Toxnet databases (Romualdo Benigni)
[3] = Salmonella typhimurium, Strain TA 102, in Vitro, Database: Bacterial mutagenicity ISSSTY, ref CCRIS database,Toxnet databases (Romualdo Benigni)
[4] = in Vitro, Salmonella typhimurium, No Strain Information, Database Genotoxicity OASIS, ref Journal of Medicinal Chemistry 48 (1), pp. 312-32, 25, Kazius J, McGuire R., Bursi R
[5] = in Vitro, Salmonella typhimurium, Strain TA 97, Database Genotoxicity OASIS, ref P&G
[6] = in Vitro, Salmonella typhimurium, Strain TA 98, Database Genotoxicity OASIS, ref P&G
[7] = in Vitro, Salmonella typhimurium, Strain TA 100, Database Genotoxicity OASIS, ref P&G
[8] = in Vitro, Salmonella typhimurium, Strain TA 1535, Database Genotoxicity OASIS, ref P&G
[9] = in Vitro, Salmonella typhimurium, Strain TA 1537, Database Genotoxicity OASIS, ref P&G
[10] = in Vitro, Salmonella typhimurium, Strain TA 1538, Database Genotoxicity OASIS, ref P&G
[11] = in Vitro, Salmonella typhimurium, Strain TA 98, Database Bacterial mutagenicity ISSSTY, ref CCRIS database,Toxnet databases, Romualdo Benigni, 02.5.2011
[12] = in Vitro, Salmonella typhimurium, Strain TA 1535, Database Bacterial mutagenicity ISSSTY, ref CCRIS database,Toxnet databases, Romualdo Benigni, 02.5.2011
[13] = in Vitro, Salmonella typhimurium, Strain TA 1537, Database Bacterial mutagenicity ISSSTY, ref CCRIS database,Toxnet databases, Romualdo Benigni, 02.5.2011

Cc1cc(C(C)(C)C)c(O)c(C(C)(C)C)c1 [Butylated hydroxytoluene]
Positive in vitro data: Risk based on in vitro genotoxicity data from database (from QSAR-toolbox)

CN1CCCC1=O [872-50-4]
Negative: Gene mutation, Bacterial Reverse Mutation Assay (e.g. Ames Test) (Salmonella typhimurium, Strain TA 97, in Vitro, Database: Bacterial mutagenicity ISSSTY, ref CCRIS database,Toxnet databases (Romualdo Benigni)) | Gene mutation, Bacterial Reverse Mutation Assay (e.g. Ames Test) [1] | Gene mutation, Bacterial Reverse Mutation Assay (e.g. Ames Test) [2] | Gene mutation, Bacterial Reverse Mutation Assay (e.g. Ames Test) [3] | Gene mutation, Bacterial Reverse Mutation Assay (e.g. Ames Test) (Salmonella typhimurium, Strain TA 104, in Vitro, Database: Bacterial mutagenicity ISSSTY, ref CCRIS database,Toxnet databases (Romualdo Benigni)) | Gene mutation, Bacterial Reverse Mutation Assay (e.g. Ames Test) (Salmonella typhimurium, Strain TA 2638, in Vitro, Database: Bacterial mutagenicity ISSSTY, ref CCRIS database,Toxnet databases (Romualdo Benigni)) | Gene mutation, Bacterial Reverse Mutation Assay (e.g. Ames Test) [4] | Gene mutation, Bacterial Reverse Mutation Assay (e.g. Ames Test) [5] | Gene mutation, Bacterial Reverse Mutation Assay (e.g. Ames Test) [6] | Gene mutation, Bacterial Reverse Mutation Assay (e.g. Ames Test) [7] | Gene mutation, Bacterial Reverse Mutation Assay (e.g. Ames Test) (in Vitro, Salmonella typhimurium, Strain TA 102, OECD Guideline 471, Database Genotoxicity OASIS, ref CCRIS database,Toxnet databases) | Gene mutation, Bacterial Reverse Mutation Assay (e.g. Ames Test) [8] | Gene mutation, Bacterial Reverse Mutation Assay (e.g. Ames Test) [9] | Gene mutation, Bacterial Reverse Mutation Assay (e.g. Ames Test) [10]

Cc1ccc(S(N)(=O)=O)cc1 [70-55-3]
Negative: Gene mutation, Bacterial Reverse Mutation Assay (e.g. Ames Test) (Salmonella typhimurium, No Strain Information, in Vitro, Database: Genotoxicity OASIS, ref NIHS Japan) | Gene mutation, Bacterial Reverse Mutation Assay (e.g. Ames Test) (Salmonella typhimurium, Strain TA 98, in Vitro, Database: Genotoxicity OASIS, ref https://doi.org/10.22427/NTP-DATA-022-00002-0001-000-7, National Institute of Environmental Health Sciences) | Gene mutation, Bacterial Reverse Mutation Assay (e.g. Ames Test) (Salmonella typhimurium, Strain TA 100, in Vitro, Database: Genotoxicity OASIS, ref https://doi.org/10.22427/NTP-DATA-022-00002-0001-000-7, National Institute of Environmental Health Sciences) | Gene mutation, Bacterial Reverse Mutation Assay (e.g. Ames Test) (Salmonella typhimurium, Strain TA 102, in Vitro, Database: Genotoxicity OASIS, ref https://doi.org/10.22427/NTP-DATA-022-00002-0001-000-7, National Institute of Environmental Health Sciences) | Gene mutation, Bacterial Reverse Mutation Assay (e.g. Ames Test) (Salmonella typhimurium, Strain TA 1535, in Vitro, OECD Guideline 471, Database: Genotoxicity OASIS, ref Japan Existing Chemical Data Base) | Chromosome aberration, in Vitro Mammalian Chromosome Aberration Test (in Vitro, Chinese hamster, Chinese Hamster Lung Cells, Guidelines For Screening Mutagenicity Testing of Chemicals (Chemical Substances Control Law of Japan), Database Toxicity Japan MHLW, ref Japan Ministry of Health Labour and Welfare, http://dra4.nihs.go.jp/mhlw_data/jsp/SearchPageENG.jsp) | Gene mutation, Bacterial Reverse Mutation Assay (e.g. Ames Test) (in Vitro, E. coli WP2 uvrA, Database Genotoxicity OASIS, ref ECHA, Registration dossier) | Gene mutation, Bacterial Reverse Mutation Assay (e.g. Ames Test) (in Vitro, Escherichia coli, Strain WP2 UvrA, Guidelines For Screening Mutagenicity Testing of Chemicals (Chemical Substances Control Law of Japan), Database Toxicity Japan MHLW, ref Japan Existing Chemical Data Base, http://dra4.nihs.go.jp/mhlw_data/jsp/SearchPageENG.jsp) | Chromosome aberration, in Vitro Mammalian Chromosome Aberration Test (in Vitro, No Strain Information, Database Genotoxicity OASIS, ref NIHS Japan) | Gene mutation, Bacterial Reverse Mutation Assay (e.g. Ames Test) (in Vitro, Salmonella typhimurium, Strain TA 97, Guidelines For Screening Mutagenicity Testing of Chemicals (Chemical Substances Control Law of Japan), Database Toxicity Japan MHLW, ref Japan Existing Chemical Data Base, http://dra4.nihs.go.jp/mhlw_data/jsp/SearchPageENG.jsp) | Gene mutation, Bacterial Reverse Mutation Assay (e.g. Ames Test) (in Vitro, Salmonella typhimurium, Strain TA 100, Guidelines For Screening Mutagenicity Testing of Chemicals (Chemical Substances Control Law of Japan), Database Toxicity Japan MHLW, ref Japan Existing Chemical Data Base, http://dra4.nihs.go.jp/mhlw_data/jsp/SearchPageENG.jsp) | Gene mutation, Bacterial Reverse Mutation Assay (e.g. Ames Test) (in Vitro, Salmonella typhimurium, Strain TA 1535, Guidelines For Screening Mutagenicity Testing of Chemicals (Chemical Substances Control Law of Japan), Database Toxicity Japan MHLW, ref Japan Existing Chemical Data Base, http://dra4.nihs.go.jp/mhlw_data/jsp/SearchPageENG.jsp) | Gene mutation, Bacterial Reverse Mutation Assay (e.g. Ames Test) (in Vitro, Salmonella typhimurium, Strain TA 1535, OECD Guideline 471, Database Genotoxicity OASIS, ref Japan Existing Chemical Data Base) | Gene mutation, Bacterial Reverse Mutation Assay (e.g. Ames Test) (in Vitro, Salmonella typhimurium, Strain TA 1537, Guidelines For Screening Mutagenicity Testing of Chemicals (Chemical Substances Control Law of Japan), Database Toxicity Japan MHLW, ref Japan Existing Chemical Data Base, http://dra4.nihs.go.jp/mhlw_data/jsp/SearchPageENG.jsp) | Gene mutation, Bacterial Reverse Mutation Assay (e.g. Ames Test) (in Vitro, Salmonella typhimurium, Strain TA 1537, OECD Guideline 471, Database Genotoxicity OASIS, ref Japan Existing Chemical Data Base)

CCCCOC(=O)c1ccccc1C(=O)OCCCC [84-74-2]
Negative: Gene mutation, Bacterial Reverse Mutation Assay (e.g. Ames Test) [1] | Gene mutation, Bacterial Reverse Mutation Assay (e.g. Ames Test) (Salmonella typhimurium, Strain TA 1535, in Vitro, Database: Bacterial mutagenicity ISSSTY, ref CCRIS database,Toxnet databases (Romualdo Benigni)) | Gene mutation, Bacterial Reverse Mutation Assay (e.g. Ames Test) (Salmonella typhimurium, Strain TA 1537, in Vitro, Database: Bacterial mutagenicity ISSSTY, ref CCRIS database,Toxnet databases (Romualdo Benigni)) | Chromosome aberration, in Vitro Mammalian Chromosome Aberration Test (in Vitro, Chinese hamster, Chinese Hamster Lung (CHL), Duration 6÷18 h, Database Genotoxicity OASIS, ref Sofuni, T., Ed. (1998). Data Book of Chromosomal Aberration Test In Vitro, Revised Edition) | Chromosome aberration, in Vitro Mammalian Chromosome Aberration Test (in Vitro, Chinese hamster, Chinese Hamster Lung (CHL), Duration 24÷48 h, Database Genotoxicity OASIS, ref Sofuni, T., Ed. (1998). Data Book of Chromosomal Aberration Test In Vitro, Revised Edition) | Gene mutation, Bacterial Reverse Mutation Assay (e.g. Ames Test) [5] | Gene mutation, Bacterial Reverse Mutation Assay (e.g. Ames Test) [11] | Gene mutation, Bacterial Reverse Mutation Assay (e.g. Ames Test) [6] | Gene mutation, Bacterial Reverse Mutation Assay (e.g. Ames Test) [7] | Gene mutation, Bacterial Reverse Mutation Assay (e.g. Ames Test) [12] | Gene mutation, Bacterial Reverse Mutation Assay (e.g. Ames Test) [8] | Gene mutation, Bacterial Reverse Mutation Assay (e.g. Ames Test) [13] | Gene mutation, Bacterial Reverse Mutation Assay (e.g. Ames Test) [9] | Gene mutation, Bacterial Reverse Mutation Assay (e.g. Ames Test) [10]

CCCCCCCCCc1ccc(O)cc1 [104-40-5]
Negative: Gene mutation, Bacterial Reverse Mutation Assay (e.g. Ames Test) [2] | Gene mutation, Bacterial Reverse Mutation Assay (e.g. Ames Test) [3] | Gene mutation, Bacterial Reverse Mutation Assay (e.g. Ames Test) [4] | Gene mutation, Bacterial Reverse Mutation Assay (e.g. Ames Test) (in Vitro, Salmonella typhimurium, Strain TA 97, Database Bacterial mutagenicity ISSSTY, ref CCRIS database,Toxnet databases, Romualdo Benigni, 02.5.2011) | Gene mutation, Bacterial Reverse Mutation Assay (e.g. Ames Test) [11] | Gene mutation, Bacterial Reverse Mutation Assay (e.g. Ames Test) (in Vitro, Salmonella typhimurium, Strain TA 100, Database Bacterial mutagenicity ISSSTY, ref CCRIS database,Toxnet databases, Romualdo Benigni, 02.5.2011) | Gene mutation, Bacterial Reverse Mutation Assay (e.g. Ames Test) (in Vitro, Salmonella typhimurium, Strain TA 102, Database Bacterial mutagenicity ISSSTY, ref CCRIS database,Toxnet databases, Romualdo Benigni, 02.5.2011) | Gene mutation, Bacterial Reverse Mutation Assay (e.g. Ames Test) (in Vitro, Salmonella typhimurium, Strain TA 104, Database Bacterial mutagenicity ISSSTY, ref CCRIS database,Toxnet databases, Romualdo Benigni, 02.5.2011) | Gene mutation, Bacterial Reverse Mutation Assay (e.g. Ames Test) [12] | Gene mutation, Bacterial Reverse Mutation Assay (e.g. Ames Test) [13] | Gene mutation, Bacterial Reverse Mutation Assay (e.g. Ames Test) (in Vitro, Salmonella typhimurium, Strain TA 1538, Database Bacterial mutagenicity ISSSTY, ref CCRIS database,Toxnet databases, Romualdo Benigni, 02.5.2011)

O=C1CCCCCN1 [Caprolactam]
Positive in vitro data: Risk based on in vitro genotoxicity data from database (from QSAR-toolbox)

CC(C)(C)c1ccc(O)c(C(C)(C)C)c1 [2,4-Di-tert-butylphenol]
Positive in vitro data: Risk based on in vitro genotoxicity data from database (from QSAR-toolbox)

Nc1ccccc1 [Aniline]
Positive in vitro data: Risk based on in vitro genotoxicity data from database (from QSAR-toolbox)

OCc1ccccc1 [Benzylalcohol]
Positive in vitro data: Risk based on in vitro genotoxicity data from database (from QSAR-toolbox)

CC(C)(c1ccc(O)cc1)c1ccc(O)cc1 [Bisphenol A]
Positive in vitro data: Risk based on in vitro genotoxicity data from database (from QSAR-toolbox)

Sc1nc2ccccc2s1 [2-Mercaptobenzothiazole]
Positive in vitro data: Risk based on in vitro genotoxicity data from database (from QSAR-toolbox)
